One data set concerns common marmosets. Briefly: marmoset human threat test. The class given is in vivo, common marmoset. The note with it: for No. jumps (index of locomotor activity): 1 h before test, mean±SEM n=4, vehicle 16.3 ± 1.7. Here is the method: For example the marmoset human threat test (Costall et al., 1988 The study utilised in house laboratory-bred male and female common marmosets over 2 years of age, weighing 300-500 g. The animals were caged in couples, in a housing room maintained at 25±1° C., 60% humidity and a 12 hour light/dark cycle (lights on at 0600, with 30 min simulated dawn and twilight). Testing was carried out with the animals situated in the home cage. One hour before the test animals were treated orally with vehicle (0.5% HPMC) or test compound (1 ml/kg). After a wash-out period of at least three days, treatments were reassigned and the study was complete when all animals had received all treatments. Number of specific behavioural postures in response to the human threat and the number of jumps were analysed in this study. The postures recorded in the test were those described by Costall et al (1988). and the number of jumps from the back of the cage to the cage front provided an index of locomotor activity to assess potential for sedation or locomotor stimulation. […] Results are expressed as mean±SEM (n=7). of number of postures and as a mean±SEM (n=4) of number of jumps. Data were subjected to one-way analysis of variance (ANOVA) followed by Dunnett's test, comparing each compound dose with vehicle treatment, using Statistica software (version 8.0) Statistically significant differences with respect to vehicle are indicated as *P<0.01.

For the next data set, the target named is T1, NK1 receptor (Meriones unguiculatus, UniProt Q5DUB1).
T1 construct: from tissue; host or cells: living gerbil, central nervous system (in vivo)
T1 sequence (Q5DUB1 whole entry): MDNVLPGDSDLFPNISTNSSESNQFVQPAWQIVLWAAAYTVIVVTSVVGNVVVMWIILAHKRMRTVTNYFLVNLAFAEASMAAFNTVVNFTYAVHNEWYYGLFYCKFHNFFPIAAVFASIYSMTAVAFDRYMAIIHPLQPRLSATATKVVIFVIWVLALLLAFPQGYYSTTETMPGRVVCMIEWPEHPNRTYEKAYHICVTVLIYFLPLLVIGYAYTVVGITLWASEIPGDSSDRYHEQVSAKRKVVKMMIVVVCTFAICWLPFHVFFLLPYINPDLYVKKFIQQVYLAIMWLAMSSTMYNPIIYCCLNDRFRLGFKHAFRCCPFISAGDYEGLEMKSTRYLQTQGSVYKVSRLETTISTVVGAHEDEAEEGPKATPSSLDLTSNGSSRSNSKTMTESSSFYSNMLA
Briefly: gerbil foot tapping model (GR73632-induced, icv). The class given is in vivo. The source says: The ability of the compounds of the invention to penetrate the central nervous system and to bind at the NK1 receptor may be determined using the gerbil foot tapping model as described by Rupniak & Williams, Eur. Jour. of Pharmacol., 1994.
Intracerebroventricular (icv) administration of the NK1 receptor agonist GR73632 (R. M. Hagan et al., Neuropeptides 1991, 19 (2), 127-135) a characteristic hind leg foot tapping (GFT) response in gerbils which can be inhibited by potent NK1 receptor antagonists. The gerbil foot tapping paradigm was carried out as follows; gerbils were dosed with compound of the invention, and following an appropriate pre-treatment time were anaesthetised using isofluorane/oxygen mixture. The skull was then exposed and 5 ul of GR73632 (3 pmol conc.) was injected by insertion of a cuffed 25 G needle to a depth of 4 mm below bregma, directly into the lateral ventricle (intracerebroventricular dosing). Immediately following the injection, gerbils were placed individually into a clear observation box to recover. Upon the gerbil regaining its righting reflex, the duration of repetitive hind foot tapping was recorded over a 5 minute period. […]

The values that follow come from patent US9006271B2, “5-[5-[2-(3,5-bis(trifluoromethyl)phenyl)-2-methylpropanomethylpropanoylmethylamino]-4-(4-fluoro-2-methylphenyl)]-2-pyridinyl-2-alkyl-prolinamide as NK1 receptor antagonists” (Nerre Therapeutics Limited, priority 2008, dated 2015).

Molecules are shown by their SMILES. Where a name gives a salt, the structure may show the parent alone.

Take `Cc1cc(F)ccc1-c1cc([C@H]2CC[C@](C)(C(N)=O)N2)ncc1N(C)C(=O)C(C)(C)c1cc(C(F)(F)F)cc(C(F)(F)F)c1` [Example 11, (5R)-5-[5-[{2-[3,5-bis(trifluoromethyl)phenyl]-2-methylpropanoyl}(methyl)amino]-4-(4-fluoro-2-methylphenyl)-2-pyridinyl]-2-methyl-D-prolinamide bis-hydrochloride]: the “No. jumps (index of locomotor activity)” value in the data set on common marmosets (0.1 mg/kg oral) came to 20.1 ± 2.1; in the data set on common marmosets (0.3 mg/kg oral), 13.4 ± 2.5; in the data set with common marmosets (1 mg/kg oral), 13.0 ± 2.1. For the same compound, in the data set with common marmosets (0.1, 0.3 or 1 mg/kg oral), the “effect on number of jumps” value was “not accompanied by a reduction in the number of jumps”. Besides, the “effect on number of postures” value with common marmosets (0.1, 0.3 or 1 mg/kg oral, significant at 0.3 and 1 mg/kg (P<0.01)) was “dose dependent reduction in the number of postures”. On NK1 receptor (0.3, 1.0 and 3.0 mg/kg p.o., P<0.01), the “GR73632-induced foot tapping behaviour” value is given as “significantly attenuated”. Also, the “ID50 as plasma concentration” value at NK1 receptor (plasma, p.o.) is listed as “approximately 5 ng/ml”.
